According to EP3643303A1, “COMPOUNDS FOR USE IN THE TREATMENT OR PREVENTION OF FIBROTIC DISEASES; PHARMACEUTICAL, COSMETIC COMPOSITIONS AND USES THEREOF” (InnovativeHealth Group SL, priority 2018, dated 2020):

Legend:
[1] = test system: normal human dermal fibroblasts (NHDFs); assay: Collagen secretion (Sircol Soluble Collagen Assay) in TGFβ-stimulated NHDFs; format: cell-based; conditions: 1 h pre-treatment, TGFβ 24 h; Figure 4
Procedure: Next, NHDFs were used to correlate the effect of both isomers of CBD on Col1A2 transcriptional activity with collagen secretion. NHDFs were seeded in 24 well plates (5x10^4 cells/well), pre-treated with either (-)CBD or (+)CBD for 1 h and stimulated with TGFβ for the following 24 h. Collagen secretion was studied by collecting culture medium and measuring soluble collagen using the Sircol Soluble Collagen Assay (Biocolor, County Antrim, UK) following manufacturer's instructions.

[2] = test system: CB1; conditions: Bisogno et al. 2001; cited from earlier work
[3] = molecular target: CB2 (Homo sapiens, UniProt P34972); conditions: Bisogno et al. 2001; cited from earlier work
Sequence of CB2 (P34972 whole entry, species assumed): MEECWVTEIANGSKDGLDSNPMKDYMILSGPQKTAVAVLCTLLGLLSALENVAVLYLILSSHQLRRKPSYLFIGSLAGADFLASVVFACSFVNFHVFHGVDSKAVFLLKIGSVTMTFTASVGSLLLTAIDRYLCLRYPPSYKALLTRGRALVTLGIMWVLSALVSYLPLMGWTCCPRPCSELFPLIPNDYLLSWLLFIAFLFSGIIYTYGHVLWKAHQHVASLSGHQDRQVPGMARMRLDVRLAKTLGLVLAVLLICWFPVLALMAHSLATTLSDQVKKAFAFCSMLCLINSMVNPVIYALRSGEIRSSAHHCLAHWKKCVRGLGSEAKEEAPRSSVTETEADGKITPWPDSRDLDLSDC

[4] = test system: mouse seizure model; conditions: Leite et al. 1982; cited from earlier work
[5] = molecular target: TRPV-1 (Homo sapiens, UniProt Q8NER1); assay: Capsaicin-induced cytotoxicity (YOYO-1, Incucyte) in HEK-293T-TRPV1 cells; format: cell-based; design: expressed in transfected cells; host or cells: HEK-293T; conditions: Capsaicin 1 µM for 3 h, Figure 2B
Sequence of TRPV-1 (Q8NER1 whole entry): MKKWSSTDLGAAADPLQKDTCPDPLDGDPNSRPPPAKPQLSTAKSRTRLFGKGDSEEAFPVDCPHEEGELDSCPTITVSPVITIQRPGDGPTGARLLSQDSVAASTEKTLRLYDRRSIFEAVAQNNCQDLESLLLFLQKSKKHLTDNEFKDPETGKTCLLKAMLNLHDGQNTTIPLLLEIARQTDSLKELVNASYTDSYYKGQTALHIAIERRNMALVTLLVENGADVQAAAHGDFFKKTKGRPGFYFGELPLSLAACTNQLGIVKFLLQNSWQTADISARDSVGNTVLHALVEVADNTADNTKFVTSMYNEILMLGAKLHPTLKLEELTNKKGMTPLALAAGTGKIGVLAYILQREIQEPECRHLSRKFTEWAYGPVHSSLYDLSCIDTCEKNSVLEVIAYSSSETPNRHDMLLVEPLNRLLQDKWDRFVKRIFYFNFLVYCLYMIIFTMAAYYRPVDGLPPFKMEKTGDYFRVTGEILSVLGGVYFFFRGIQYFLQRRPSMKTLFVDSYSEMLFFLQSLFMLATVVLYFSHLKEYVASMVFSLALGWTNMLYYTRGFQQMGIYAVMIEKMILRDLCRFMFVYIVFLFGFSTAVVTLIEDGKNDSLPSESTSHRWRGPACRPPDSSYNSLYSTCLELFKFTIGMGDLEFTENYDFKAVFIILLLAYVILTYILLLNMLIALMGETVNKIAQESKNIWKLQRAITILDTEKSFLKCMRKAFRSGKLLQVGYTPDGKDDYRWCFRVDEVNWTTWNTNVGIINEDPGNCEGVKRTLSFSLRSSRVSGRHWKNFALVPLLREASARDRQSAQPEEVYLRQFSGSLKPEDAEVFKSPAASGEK
Procedure: Capsaicin-induced cytotoxicity as a model of TRPV-1 agonistic assay was also investigated in HEK-293T-TRPV1 cells. The cells (2x10^4/well) were cultured in triplicate in 96-well microtiter plates in 200 µL of complete medium and incubated with (-)CBD or (+)CBD and then stimulated with the agonist Capsaicin (1 µM) for 3 h. Capzasepine (10 µM) was used as the positive control of TRPV-1 antagonism. Then, TRPV-1 induced cytotoxicity was measured by fluorescence using the die YOYO-1 (Life Technologies). YOYO-1 was diluted in cell culture medium and added to a final concentration of 0.1 µM to both experimental and control wells. YOYO-1 is a cell impermeant cyanine dimer nucleic acid stain that can only enter cells with a compromised plasma membrane and fluorescently stain the nuclear DNA. By adding YOYO-1 to damaged cells an increase in YOYO-1 fluorescence is detected. Treated cells are placed in an Incucyte FLR imaging system, and the YOYO-1 fluorescence is measured after 3 h. […] Object counting analysis is performed using the Incucyte FLR software to calculate the total number of YOYO-1 fluorescence positive cells and total DNA containing objects (end point). The cytotoxicity index is calculated by dividing the number of YOYO-1 fluorescence positive objects by the total number of DNA containing objects for each treatment group.

[6] = test system: NHDFs; assay: Fibroblast migration scratch (wound healing) assay in NHDFs; format: cell-based, human; conditions: Figure 6
Procedure: Migration of skin fibroblast plays a crucial role not only in normal wound healing but also in fibrotic diseases. To further analyze this point, it was tested if the anti-fibrotic effect of (-)CBD could be associated with reduced fibroblast migration. To investigate this possibility, the effect of (-)CBD on TGFβ-induced wound healing was investigated. NHDFs (2x10^3 cells) were seeded in complete DMEM in a 96-well Essen ImageLock plates (Essen BioScience). When cells reached confluence, wound scratches were made using the 96-pin WoundMaker (Essen BioScience). Then, culture medium was replaced by DMEM supplemented with 1% antibiotics and with mitomycin C (10 ng/ml) to block cell proliferation. (-)CBD and TGFβ1 10 ng/ml were added in parallel. Wound healing activity was analyzed using IncuCyte HD system by taking images every 3 h for 48 h and the percentage of wound confluence calculated with the IncuCyte software.

[7] = test system: BLM-induced fibrosis; assay: Bleomycin (BLM) mouse model of skin fibrosis, histology and observation; format: in vivo, Mice
Procedure: The bleomycin (BLM) mice model is widely used to evaluate potential anti-inflammatory and anti-fibrotic therapies for SSc. BLM causes inflammation in a short period of time, characterized by elevation of proinflammatory cytokines and growth factors that peak around day 14 of BLM exposure. […] The inflammatory model of SSc was used to study (-)CBD preventive effects. Fibrosis was induced by daily subcutaneous administration of BLM (50 µg/mice; 100 µl) (Mylan, Barcelona, Spain) for 3 weeks. Treatments were administered in parallel and consisted of daily intraperitoneal (i.p.) injections of (-)CBD (20 mg/kg), or vehicle (4% DMSO, 6.2% Tween20, saline; 100 µl). Subcutaneous injections of 0.9% NaCl served as a control. Mice were acclimated to manipulators for a week previously to the experiments in order to reduce stress and allow the detection of subtle changes in behavior by researchers. […] Mice were sacrificed by cervical dislocation and the back skin was removed and processed for histological examination or was frozen for further analysis.
Mast cells degranulation as well as macrophages and lymphocyte accumulation are the hallmark of BLM-induced fibrosis and play important roles during the inflammatory phase of SSc. Mast cells degranulation can be identified by toluidine blue staining and macrophage accumulation by staining with a mAb that identifies F4/80^+ cells. Skin sections ([…]) were stained toluidine blue. For immunohistochemical detection of macrophages F4/80 (1:50; MCA497, Bio-Rad) antibody was used. Slides were developed with diaminobenzidine chromogen (Merck Millipore) and counterstained in Harris hematoxylin. Slides were photographed, digitalized using a Leica DFC420c camera and analyzed using Image J software.

[8] = test system: activated hepatic stellate cells; conditions: Lim et al. 2011; cited from earlier work
[9] = test system: diabetes-associated myocardial fibrosis; conditions: Rajesh et al. 2010; cited from earlier work
[10] = BLM 3 weeks, 20 mg/kg i.p. daily, Figure 8

Compound	TGFβ-induced collagen release and deposition [1]	affinity at CB1 receptors [2]	affinity at CB2 receptors [3]	anticonvulsant activity [4]	capsaicin-induced cytotoxicity (cytotoxicity index) [5]	wound closure induced by TGFβ1 ([6]; TGFβ1 10 ng/ml, 48 h, concentration-dependent)	wound closure induced by rhIL-4 ([6]; rhIL-4, concentration-dependent)	dermal thickness [7, 10]	loss of adipose tissue layer induced by BLM [7, 10]	piloerection, hunched appearances ([7]; during the experimental procedures, 20 mg/kg i.p. daily)	behavioral changes ([7]; during the protocols, 20 mg/kg i.p. daily)	Mice weight ([7]; evaluated weekly, between experimental groups, 20 mg/kg i.p. daily)	infiltration of F4/80^+ macrophages ([7]; immunostaining, versus BLM untreated mice, 20 mg/kg i.p., Figure 10)	number of degranulated mast cells in the lesioned skin ([7]; toluidine blue, BLM 3 weeks, 20 mg/kg i.p., Figure 9)	cell death of activated hepatic stellate cells [8]	diabetes-associated myocardial fibrosis [9]
C=C(C)[C@H]1CCC(C)=C[C@@H]1c1c(O)cc(CCCCC)cc1O [(+)CBD, (+)Cannabidiol]	significantly inhibited	has been shown to have affinity	has been shown to have affinity	more active than the (-)CBD isomer	prevent capsaicin-induced calcium mobilization	–	–	–	–	–	–	–	–	–	–	–
C=C(C)[C@@H]1CCC(C)=C[C@H]1c1c(O)cc(CCCCC)cc1O [(-)CBD, 2-[(1R,6R)-3-methyl-6-prop-1-en-2-ylcyclohex-2-en-1-yl]-5-pentylbenzene-1,3-diol]	significantly inhibited	–	–	–	prevent capsaicin-induced calcium mobilization	significantly attenuated	significantly attenuated	attenuated	not were able to recover	Neither piloerection nor hunched appearances were appreciated	No behavioral changes	no significant changes	significantly reduced	prevented	induces cell death	attenuates
